In the NIST ThermoML archive (doi:10.1021/acs.jced.8b00854):

What was measured:
[1] = xn = mol fraction of the nth substance listed; settings: 100 kPa, Liquid, Vibrating tube method
[2] = refractive index (Na D-line) (dimensionless); xn = mol fraction of the nth substance listed; settings: 100 kPa, Liquid, Standard Abbe refractometry

CCCCn1cc[n+](C)c1.O=S(=O)([O-])C(F)(F)F [1-butyl-3-methylimidazolium trifluoromethanesulfonate] + O
Settings | mass density, [1] [kg/m3] | refractive index, [2]
293.15 K, x1 = 0.1001 | 1176.55 | 1.396
293.15 K, x1 = 0.2003 | 1227.39 | 1.4145
293.15 K, x1 = 0.3007 | 1251.78 | 1.421
293.15 K, x1 = 0.4003 | 1266.32 | 1.4265
293.15 K, x1 = 0.5001 | 1275.87 | 1.4301
293.15 K, x1 = 0.5998 | 1282.43 | 1.432
293.15 K, x1 = 0.6995 | 1287.53 | 1.434
293.15 K, x1 = 0.8017 | 1291.5 | 1.4355
293.15 K, x1 = 0.8993 | 1294.38 | 1.4365
303.15 K, x1 = 0.1001 | 1169.14 | 1.3945
303.15 K, x1 = 0.2003 | 1219.44 | 1.411
303.15 K, x1 = 0.3007 | 1243.64 | 1.4195
303.15 K, x1 = 0.4003 | 1258.57 | 1.4245
303.15 K, x1 = 0.5001 | 1267.92 | 1.428
303.15 K, x1 = 0.5998 | 1274.38 | 1.4305
303.15 K, x1 = 0.6995 | 1279.4 | 1.4315
303.15 K, x1 = 0.8017 | 1283.28 | 1.4335
303.15 K, x1 = 0.8993 | 1286.22 | 1.4345
313.15 K, x1 = 0.1001 | 1161.07 | 1.3925
313.15 K, x1 = 0.2003 | 1210.91 | 1.4095
313.15 K, x1 = 0.3007 | 1235.41 | 1.418
313.15 K, x1 = 0.4003 | 1250.38 | 1.423
313.15 K, x1 = 0.5001 | 1259.88 | 1.426
313.15 K, x1 = 0.5998 | 1266.41 | 1.4285
313.15 K, x1 = 0.6995 | 1271.39 | 1.43
313.15 K, x1 = 0.8017 | 1275.29 | 1.431
313.15 K, x1 = 0.8993 | 1278.29 | 1.4325
323.15 K, x1 = 0.1001 | 1153.14 | 1.3915
323.15 K, x1 = 0.2003 | 1201.99 | 1.409
323.15 K, x1 = 0.3007 | 1226.91 | 1.4175
323.15 K, x1 = 0.4003 | 1241.75 | 1.421
323.15 K, x1 = 0.5001 | 1251.81 | 1.4245
323.15 K, x1 = 0.5998 | 1258.46 | 1.4255
323.15 K, x1 = 0.6995 | 1263.41 | 1.4275
323.15 K, x1 = 0.8017 | 1267.34 | 1.429
323.15 K, x1 = 0.8993 | 1270.34 | 1.4305
333.15 K, x1 = 0.1001 | 1143.31 | 1.3905
333.15 K, x1 = 0.2003 | 1193.54 | 1.408
333.15 K, x1 = 0.3007 | 1218.41 | 1.4155
333.15 K, x1 = 0.4003 | 1233.39 | 1.42
333.15 K, x1 = 0.5001 | 1243.49 | 1.422
333.15 K, x1 = 0.5998 | 1250.25 | 1.424
333.15 K, x1 = 0.6995 | 1255.51 | 1.4255
333.15 K, x1 = 0.8017 | 1259.46 | 1.427
333.15 K, x1 = 0.8993 | 1262.47 | 1.428
343.15 K, x1 = 0.1001 | 1133.11 | 1.389
343.15 K, x1 = 0.2003 | 1184.05 | 1.405
343.15 K, x1 = 0.3007 | 1209.18 | 1.415
343.15 K, x1 = 0.4003 | 1224.41 | 1.4185
343.15 K, x1 = 0.5001 | 1234.79 | 1.4215
343.15 K, x1 = 0.5998 | 1241.97 | 1.423
343.15 K, x1 = 0.6995 | 1247.23 | 1.4235
343.15 K, x1 = 0.8017 | 1251.33 | 1.4255
343.15 K, x1 = 0.8993 | 1254.45 | 1.4265

CCn1cc[n+](C)c1.F[B-](F)(F)F [1-ethyl-3-methylimidazolium tetrafluoroborate] + O
Settings | mass density, [1] [kg/m3] | refractive index, [2]
293.15 K, x1 = 0.1001 | 1135.98 | 1.369
293.15 K, x1 = 0.2002 | 1190.68 | 1.3825
293.15 K, x1 = 0.3004 | 1219.59 | 1.3915
293.15 K, x1 = 0.4003 | 1237.8 | 1.398
293.15 K, x1 = 0.5009 | 1251.03 | 1.401
293.15 K, x1 = 0.5999 | 1261.19 | 1.4045
293.15 K, x1 = 0.7002 | 1269.24 | 1.4065
293.15 K, x1 = 0.8004 | 1275.23 | 1.4085
293.15 K, x1 = 0.9011 | 1279.57 | 1.4105
303.15 K, x1 = 0.1001 | 1129.7 | 1.367
303.15 K, x1 = 0.2002 | 1183.7 | 1.381
303.15 K, x1 = 0.3004 | 1212.47 | 1.3895
303.15 K, x1 = 0.4003 | 1230.6 | 1.3955
303.15 K, x1 = 0.5009 | 1243.72 | 1.3995
303.15 K, x1 = 0.5999 | 1253.76 | 1.402
303.15 K, x1 = 0.7002 | 1261.71 | 1.4045
303.15 K, x1 = 0.8004 | 1267.64 | 1.407
303.15 K, x1 = 0.9011 | 1271.96 | 1.408
313.15 K, x1 = 0.1001 | 1123.34 | 1.3655
313.15 K, x1 = 0.2002 | 1176.44 | 1.379
313.15 K, x1 = 0.3004 | 1204.95 | 1.3875
313.15 K, x1 = 0.4003 | 1223.03 | 1.3935
313.15 K, x1 = 0.5009 | 1236.17 | 1.3975
313.15 K, x1 = 0.5999 | 1246.23 | 1.4005
313.15 K, x1 = 0.7002 | 1254.19 | 1.4025
313.15 K, x1 = 0.8004 | 1260.1 | 1.405
313.15 K, x1 = 0.9011 | 1264.39 | 1.4065
323.15 K, x1 = 0.1001 | 1116.34 | 1.364
323.15 K, x1 = 0.2002 | 1169.01 | 1.377
323.15 K, x1 = 0.3004 | 1197.41 | 1.3875
323.15 K, x1 = 0.4003 | 1215.41 | 1.392
323.15 K, x1 = 0.5009 | 1228.52 | 1.3965
323.15 K, x1 = 0.5999 | 1238.61 | 1.399
323.15 K, x1 = 0.7002 | 1246.64 | 1.401
323.15 K, x1 = 0.8004 | 1252.61 | 1.4025
323.15 K, x1 = 0.9011 | 1256.9 | 1.4045
333.15 K, x1 = 0.1001 | 1110.02 | 1.362
333.15 K, x1 = 0.2002 | 1161.89 | 1.376
333.15 K, x1 = 0.3004 | 1190.09 | 1.385
333.15 K, x1 = 0.4003 | 1208.03 | 1.391
333.15 K, x1 = 0.5009 | 1221.09 | 1.395
333.15 K, x1 = 0.5999 | 1231.14 | 1.398
333.15 K, x1 = 0.7002 | 1239.11 | 1.399
333.15 K, x1 = 0.8004 | 1245.05 | 1.401
333.15 K, x1 = 0.9011 | 1249.32 | 1.4025
343.15 K, x1 = 0.1001 | 1101.5 | 1.3615
343.15 K, x1 = 0.2002 | 1153.47 | 1.376
343.15 K, x1 = 0.3004 | 1181.98 | 1.385
343.15 K, x1 = 0.4003 | 1200.26 | 1.39
343.15 K, x1 = 0.5009 | 1213.58 | 1.3935
343.15 K, x1 = 0.5999 | 1223.61 | 1.397
343.15 K, x1 = 0.7002 | 1231.58 | 1.3985
343.15 K, x1 = 0.8004 | 1237.51 | 1.3995
343.15 K, x1 = 0.9011 | 1241.76 | 1.401
